# Article PMC2362861, “Potent interaction of flavopiridol with MRP1” (British Journal of Cancer, 1999)
# Like-named read-outs stand apart in the source and are kept apart here.
# How the values were obtained:
# [1] = test system: S1(MRP); assay: Growth inhibition assay, S1(MRP); format: cell-based, human
# [2] = test system: GLC4/ADR cells; assay: Steady-state cellular [3H]daunorubicin accumulation in GLC4/ADR cells; format: cell-based, human
# [3] = target: T1, MRP1 ATPase activity (Homo sapiens, UniProt P33527); assay: ATPase activity of GLC4/ADR plasma membranes (colourimetric inorganic phosphate); format: biochemical
# T1 construct: plasma membrane vesicles prepared from the MRP1 overexpressing cell line GLC4/ADR; endogenous in cells; host or cells: GLC4/ADR (adriamycin-selected human small-cell lung cancer subline); plasma membrane vesicles
# From the text: One form of cellular resistance, directed against a wide spectrum of natural agents, is referred to as multidrug resistance (MDR). […] The ATP-dependent transport of anticancer drugs out of tumour cells that express MDR proteins may at least theoretically lead to impaired treatment outcome of patients. […] 1-Chloro-2,4-dinitrobenzene (CDNB) was from Sigma (St Louis, MO, USA). […] The isoflavonoid genis- tein was from ICN Biomedicals (Zoetermeer, The Netherlands). […] The (iso)flavonoids were dissolved as a stock solution of 40 mM in dimethyl sulphoxide (DMSO; Across Chimica, Belgium) and stored at -20C. Before experiments, 1:1 dilutions were made in ethanol, followed by a dilution in ethanol/water (1: 3; v/v) to the appropriate concentrations. The maximal concentration of DMSO and ethanol, which was also added to the controls, was 0.5% (v/v). Membrane filters OE67 were from Schleicher and Schuell (Dassel, Germany). Doxorubicin hydrochloride was from Laboratoire Roger Bellon (France). […] S1(MRP1) cells were cultured in the presence of G418 until 2-10 days before experiments. […] Cells were harvested by centrifugation (275 g, 5 min) and washed twice in phosphate-buffered saline. Subsequently, the cells were incubated in 100 mM potassium chloride (KCl), 5 mM magnesium chloride (MgCl2 ), 1 mM phenylmethylsulphonyl fluoride and 50 mM HEPES-KOH (pH 7.4) for 1 h at 0C, in order to allow the cells to swell. Then the cells were ultrasonicated at 20% of the maximum power of an MSE sonicator (Soniprep 150) for three bursts of 15 s. The suspension was centrifuged at 1500 g for 10 min. […] After centrifugation at 100 000 g for 60 min the interface was removed and washed in 100 mM KC1-50 mM HEPES-5 mM MgCl2 buffer (pH 7.4). The final membrane preparations were stored at -80C at a protein concentration of ~ 4 mg ml-1 . […] Vesicles were incubated in KCl-HEPES buffer (pH 7.4) at 37C (protein concentration ~ 0.25 mg ml-1 ), in the presence of 10 mM MgCl2 with or without 1 mM ATP and tritium-labelled DNP-SG. The reaction was stopped by adding ice-cold KCl-HEPES buffer. After rapid filtration, the filters were washed twice with KCl-HEPES buffer. The radioactivity on the filters was measured by liquid scintillation counting. […] Plasma membranes were incubated for 1 h in KCl-HEPES buffer (pH 7.4) at 37C, in the presence of 1 mM EGTA, 1 mM sodium azide and 0.1 mM ouabain, with or without 1 mM ATP. […] Plasma membranes from GLC4 cells (black bars) and GLC4 /ADR cells (white bars) were incubated with 10 nM DNP-SG in the absence or presence of the MIB6 antibody (MIB6) (10 g ml-1 ) or an MRP1 control antibody (10 g ml-1 ). […] In short, anti-MRP1 antibodies were tested for their capacity to inhibit DNP-SG transport into GLC4 /ADR inside-out plasma membrane vesicles.
# [4] = during continuous infusion, ref Senderowicz et al, 1998, Stinson et al; cited from earlier work
# [5] = test system: cyclin-dependent kinases; parameters: method as in Losiewicz et al, 1996; details: ref Losiewicz et al, 1996; cited from earlier work
# [6] = test system: GLC4 cells; assay: Steady-state cellular [3H]daunorubicin accumulation in GLC4 cells; format: cell-based, human; details: GLC4; (iso)flavonoid 50 µM (μM); 0.5 M DNR, 75 min
# [7] = test system: SW1573; assay: Growth inhibition assay, SW1573; format: cell-based; details: Homo sapiens, SW1573, 72 h, read-out: IC50 value
# [8] = test system: GLC4/ADR; assay: Growth inhibition assay, GLC4/ADR; format: cell-based, human; details: for IC50: Homo sapiens, GLC-4/ADR
# [9] = test system: GLC4; assay: Growth inhibition assay, GLC4; format: cell-based, human; details: for IC50: Homo sapiens
# [10] = test system: S1(1.1); assay: Growth inhibition assay, S1(1.1); format: cell-based; details: Homo sapiens, 72 h, read-out: IC50 value
# T1 sequence (P33527 whole entry): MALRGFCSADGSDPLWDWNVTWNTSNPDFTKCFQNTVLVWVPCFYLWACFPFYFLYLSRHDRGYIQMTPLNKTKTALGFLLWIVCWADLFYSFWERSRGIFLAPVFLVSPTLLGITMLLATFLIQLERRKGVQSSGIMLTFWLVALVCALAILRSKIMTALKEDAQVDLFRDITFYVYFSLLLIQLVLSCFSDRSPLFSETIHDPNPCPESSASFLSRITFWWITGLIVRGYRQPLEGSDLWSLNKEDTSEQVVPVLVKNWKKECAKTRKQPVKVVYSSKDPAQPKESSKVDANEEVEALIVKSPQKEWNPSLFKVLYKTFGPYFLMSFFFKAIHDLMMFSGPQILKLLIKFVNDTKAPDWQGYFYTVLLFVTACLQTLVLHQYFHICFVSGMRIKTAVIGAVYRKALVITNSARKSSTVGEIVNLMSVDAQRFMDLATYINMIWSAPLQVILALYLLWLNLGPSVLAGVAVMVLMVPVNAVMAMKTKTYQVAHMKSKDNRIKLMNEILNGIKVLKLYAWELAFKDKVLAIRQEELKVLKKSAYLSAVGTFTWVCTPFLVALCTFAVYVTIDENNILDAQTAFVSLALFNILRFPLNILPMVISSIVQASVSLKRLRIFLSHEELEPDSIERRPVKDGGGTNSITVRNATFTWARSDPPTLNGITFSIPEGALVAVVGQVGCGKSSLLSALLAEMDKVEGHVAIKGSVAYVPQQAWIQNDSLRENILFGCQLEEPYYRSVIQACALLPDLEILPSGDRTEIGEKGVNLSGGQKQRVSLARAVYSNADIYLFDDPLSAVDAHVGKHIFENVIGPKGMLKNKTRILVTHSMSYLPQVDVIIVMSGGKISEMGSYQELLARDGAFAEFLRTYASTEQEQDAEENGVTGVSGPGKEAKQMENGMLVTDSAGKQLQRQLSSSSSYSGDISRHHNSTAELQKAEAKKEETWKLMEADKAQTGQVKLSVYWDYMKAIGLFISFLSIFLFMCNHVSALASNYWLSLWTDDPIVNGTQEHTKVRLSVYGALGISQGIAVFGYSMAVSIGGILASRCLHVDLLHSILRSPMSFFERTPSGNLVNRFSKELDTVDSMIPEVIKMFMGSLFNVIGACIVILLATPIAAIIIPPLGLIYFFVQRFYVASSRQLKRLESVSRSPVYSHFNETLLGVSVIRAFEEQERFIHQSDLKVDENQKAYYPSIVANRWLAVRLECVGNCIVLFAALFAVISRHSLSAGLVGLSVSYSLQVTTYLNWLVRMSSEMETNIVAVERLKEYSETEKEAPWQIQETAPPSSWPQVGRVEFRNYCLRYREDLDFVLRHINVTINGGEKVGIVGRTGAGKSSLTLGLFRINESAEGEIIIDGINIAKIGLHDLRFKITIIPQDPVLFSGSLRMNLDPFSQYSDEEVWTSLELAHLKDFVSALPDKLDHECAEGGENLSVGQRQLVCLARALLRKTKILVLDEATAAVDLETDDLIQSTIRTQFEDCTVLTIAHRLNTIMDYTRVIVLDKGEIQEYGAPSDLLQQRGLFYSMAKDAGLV
compound,measurement,setting,value
"CN1CC[C@H](c2c(O)cc(O)c3c(=O)cc(-c4ccccc4Cl)oc23)[C@H](O)C1 [Flavopiridol, (-)cis-5,7-dihydroxy-2-(2-chlorophenyl)-8[4-(3-hydroxy-1-methyl)-piperidinyl]-4H-benzopyran-4-one]",IC50,"[1]; Homo sapiens, S1(MRP), 72 h, read-out: IC50 value",130 nM
same,Resistance compared to SW1573,[1]; S1(MRP) vs SW1573,1.5 times
same,Effect on accumulation of DNR in GLC4/ADR cells,[2]; 50 µM (μM),increased the accumulation of DNR
same,"Lowest concentration tested, giving a significant increase of DNR accumulation",[2]; GLC4/ADR,100 nM
same,Difference of DNR accumulation from control (P < 0.05),"[2]; GLC4/ADR, all tested flavopiridol concentrations (0.1, 1, 5), Figure 6",gave a significant difference
same,Concentrations at which daunorubicin accumulation is affected,"[2]; GLC4/ADR, only tested compound active in this range",below 1 μM
same,Concentrations at which ATPase activity of GLC4/ADR membranes was significantly induced,"[3]; GLC4/ADR membranes, lowest effective concentration and higher",≥ 1 µM
same,Effect of GSH on (iso)flavonoid-induced MRP1 ATPase activity,"[3]; GSH 0.5 mM or 5 mM, data not shown",no synergistic stimulation
same,Steady-state plasma concentrations in humans,[4],200 to 300 nM
same,Potency as inhibitor of cyclin-dependent kinases compared to genistein and quercetin,[5],250 fold
same,"Accumulation of daunorubicin, mean percentages of control (set at 100%)",[6],104%
same,IC50,[7],85 nM
same,Resistance compared to GLC4,[8]; GLC4/ADR vs GLC4,2.8 times
same,IC50,"[8]; 72 h, read-out: IC50 value",128 nM
same,IC50,[8]; read-out: IC50 value,> 1000 nM
same,IC50,[8]; read-out: IC50 values,> 1000 nM
same,IC50,"[9]; GLC4, 72 h, read-out: IC50 value",45 nM
same,IC50,"[9]; GLC4, read-out: IC50 value",> 1000 nM
same,IC50,"[9]; GLC4, read-out: IC50 values",> 1000 nM
same,Growth inhibitory potency compared to genistein and kaempferol,"[9]; Table 3, all cell lines",about 100 fold
same,IC50,[10],93 nM
